Like-named read-outs stand apart in the source and are kept apart here. Each block holds one molecule with its values, some of them ahead of it.
Experiments:
CLK3 = CLK3 (Homo sapiens, UniProt P49761); experiment: CLK3 kinase activity assay (Z-lyte, Ser/Thr 18 peptide)
CLK2 = target: T1, CLK2 (Homo sapiens, UniProt P49760); experiment: CLK2 kinase activity assay (Z-lyte, Ser/Thr 6 peptide); assay type: biochemical; details: recombinant CLK2 kinase, ATP 60 μM; read-out: EC50
T1 construct: purchased Thermo Fisher (Life Technologies), Z'-LYTE Kinase Assay Kits
T1 sequence (P49760 whole entry): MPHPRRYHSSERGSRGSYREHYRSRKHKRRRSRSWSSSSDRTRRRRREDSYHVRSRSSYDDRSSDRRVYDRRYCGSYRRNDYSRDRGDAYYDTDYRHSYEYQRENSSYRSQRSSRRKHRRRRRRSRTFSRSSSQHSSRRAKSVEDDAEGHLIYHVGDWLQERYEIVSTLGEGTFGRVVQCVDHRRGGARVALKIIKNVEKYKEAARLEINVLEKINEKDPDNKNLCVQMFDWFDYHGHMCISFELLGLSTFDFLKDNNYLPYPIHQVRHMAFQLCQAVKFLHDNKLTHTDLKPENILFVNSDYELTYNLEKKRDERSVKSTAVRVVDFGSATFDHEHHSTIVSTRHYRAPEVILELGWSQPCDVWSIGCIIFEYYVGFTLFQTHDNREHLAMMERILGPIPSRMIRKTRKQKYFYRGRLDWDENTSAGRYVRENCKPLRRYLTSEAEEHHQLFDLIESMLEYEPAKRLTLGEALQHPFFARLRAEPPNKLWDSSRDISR
Experimental: All reactions were performed in duplicate.

[1] = tested on: colorectal cancer (6 cell lines); experiment: CellTiter-Glo Viability Assay, colorectal cancer; assay type: cell-based; details: Homo sapiens, inhibition of cancer cell proliferation
[2] = tested on: ovarian cancer (4 cell lines); experiment: CellTiter-Glo Viability Assay, ovarian cancer; assay type: cell-based; details: Homo sapiens, inhibition of cancer cell proliferation
T47D = experiment: CellTiter-Glo Viability Assay, breast cancer; assay type: cell-based; details: Homo sapiens, 96 h, breast cancer, four days, read-out: EC50
DU4475 = experiment: CellTiter-Glo Viability Assay, breast cancer; assay type: cell-based; details: Homo sapiens, DU-4475, 96 h; DU4475, breast cancer, four days; read-out: EC50
HCC1599 = experiment: CellTiter-Glo Viability Assay, breast cancer; assay type: cell-based; details: Homo sapiens, 96 h; HCC1599, breast cancer, four days; read-out: EC50
BT-549 = experiment: CellTiter-Glo Viability Assay, breast cancer; assay type: cell-based; details: Homo sapiens, 96 h; BT-549, breast cancer, four days; read-out: EC50
MDA-MB-231-Luc = experiment: CellTiter-Glo Viability Assay, breast cancer; assay type: cell-based; details: Homo sapiens, 96 h; MDA-MB-231-Luc, breast cancer, four days; read-out: EC50
CAMA1 = experiment: CellTiter-Glo Viability Assay, breast cancer; assay type: cell-based; details: Homo sapiens, CAMA-1, 96 h; CAMA1, breast cancer, four days; read-out: EC50
ZR-75-1 = experiment: CellTiter-Glo Viability Assay, breast cancer; assay type: cell-based; details: Homo sapiens, 96 h; ZR-75-1, breast cancer, four days; read-out: EC50
MCF7 = experiment: CellTiter-Glo Viability Assay, breast cancer; assay type: cell-based; details: Homo sapiens, 96 h; MCF7, breast cancer, four days; read-out: EC50
all 50 cell lines = experiment: CellTiter-Glo Viability Assay, average across all cell lines; assay type: cell-based; details: Homo sapiens; across all 50 cell lines; read-out: average EC50 for inhibition of cancer cell proliferation
How it was run: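 Human cancer cell lines from breast, colorectal, haematopoietic/lymphoid, liver, lung, ovarian, pancreatic and prostate tumours were seeded at 300-3,000 cells/well and exposed to compound in duplicate for four days at 37° C, 5% CO2. Viable cells were measured by ATP luminescence; EC50 values came from dose-response curves.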

[3] = tested on: lung cancer (4 cell lines); experiment: CellTiter-Glo Viability Assay, lung cancer; assay type: cell-based; details: Homo sapiens, inhibition of cancer cell proliferation
[4] = tested on: pancreatic cancer (8 cell lines); experiment: CellTiter-Glo Viability Assay, pancreatic cancer; assay type: cell-based; details: Homo sapiens, inhibition of cancer cell proliferation
[5] = tested on: haematopoietic & lymphoid tumors (13 cell lines); experiment: CellTiter-Glo Viability Assay, haematopoietic & lymphoid tumors; assay type: cell-based; details: Homo sapiens, inhibition of cancer cell proliferation
[6] = tested on: prostate cancer (5 cell lines); experiment: CellTiter-Glo Viability Assay, prostate cancer; assay type: cell-based; details: Homo sapiens
[7] = tested on: liver cancer (3 cell lines); experiment: CellTiter-Glo Viability Assay, liver cancer; assay type: cell-based; details: Homo sapiens, inhibition of cancer cell proliferation
[8] = HCT-116, HCT116 cell line, read-out: Colorectal cancer, EC50 (μM) HCT116
[9] = HT-29, HT29 cell line, read-out: Colorectal cancer, EC50 (μM) HT29
[10] = SW-620, SW620 cell line, read-out: Colorectal cancer, EC50 (μM) SW620
[11] = DLD-1 cell line, read-out: Colorectal cancer, EC50 (μM) DLD-1
[12] = SW48 cell line, read-out: Colorectal cancer, EC50 (μM) SW48
[13] = SW480 cell line, read-out: Colorectal cancer, EC50 (μM) SW480
[14] = PA-1, PA1 cell line, read-out: Ovarian cancer, EC50 (μM) PA1
[15] = TOV112D, TOV-112D cell line, read-out: Ovarian cancer, EC50 (μM) TOV-112D
[16] = OV-90 cell line, read-out: Ovarian cancer, EC50 (μM) OV-90
[17] = OVCAR-3 cell line, read-out: Ovarian cancer, EC50 (μM) OVCAR-3
[18] = A-427, A427 cell line, read-out: Lung cancer, EC50 (μM) A427
[19] = HCC78, HCC-78 cell line, read-out: Lung cancer, EC50 (μM) HCC-78
[20] = NCI-H460 cell line, read-out: Lung cancer, EC50 (μM) NCI-H460
[21] = NCI-H522 cell line, read-out: Lung cancer, EC50 (μM) NCI-H522
[22] = BXPC-3, BxPC3 cell line, read-out: Pancreatic cancer, EC50 BxPC3
[23] = CAPAN-1, Capan1 cell line, read-out: Pancreatic cancer, EC50 Capan1
[24] = Capan-2, Capan2 cell line, read-out: Pancreatic cancer, EC50 Capan2
[25] = MIA PaCa-2 cell line, read-out: Pancreatic cancer, EC50 MIA PaCa-2
[26] = PANC 05.04 cell line, read-out: Pancreatic cancer, EC50 PANC 05.04
[27] = PANC-1 cell line, read-out: Pancreatic cancer, EC50 PANC-1
[28] = UPAFII cell line, read-out: Pancreatic cancer, EC50 UPAFII
[29] = DND41, DND-41 cell line, read-out: Haematopoietic & Lymphoid tumors, EC50 (μM) DND-41
[30] = MV4-11, MV-4-11 cell line, read-out: Haematopoietic & Lymphoid tumors, EC50 (μM) MV-4-11
[31] = Rec1, REC-1 cell line, read-out: Haematopoietic & Lymphoid tumors, EC50 (μM) REC-1
[32] = SU-DHL-4, SUDHL4 cell line, read-out: Haematopoietic & Lymphoid tumors, EC50 (μM) SUDHL4
[33] = HL-60 cell line, read-out: Haematopoietic & Lymphoid tumors, EC50 (μM) HL-60
[34] = JM1 cell line, read-out: Haematopoietic & Lymphoid tumors, EC50 (μM) JM1
[35] = JURKAT, Clone E6-1 cell line, read-out: Haematopoietic & Lymphoid tumors, EC50 (μM) JURKAT, Clone E6-1
[36] = JeKo-1 cell line, read-out: Haematopoietic & Lymphoid tumors, EC50 (μM) JeKo-1
[37] = KASUMI-1 cell line, read-out: Haematopoietic & Lymphoid tumors, EC50 (μM) KASUMI-1
[38] = Loucy cell line, read-out: Haematopoietic & Lymphoid tumors, EC50 (μM) Loucy
[39] = MOLT-4 cell line, read-out: Haematopoietic & Lymphoid tumors, EC50 (μM) MOLT-4
[40] = TF-1 cell line, read-out: Haematopoietic & Lymphoid tumors, EC50 (μM) TF-1
[41] = TOLEDO cell line, read-out: Haematopoietic & Lymphoid tumors, EC50 (μM) TOLEDO
[42] = DU-145, read-out: Prostate cancer EC50 Du-145
[43] = PC-3, PC3 cell line, inhibition of cancer cell proliferation, read-out: Prostate cancer EC50 PC3
[44] = 22Rv1 cell line, inhibition of cancer cell proliferation, read-out: Prostate cancer EC50 22Rv1
[45] = LNCap clone FGC cell line, inhibition of cancer cell proliferation, read-out: Prostate cancer EC50 LNCap clone FGC
[46] = VCaP (Sigma) cell line, inhibition of cancer cell proliferation, read-out: Prostate cancer EC50 VCaP (Sigma)
[47] = SNU-398, SNU398 cell line, read-out: Liver cancer, EC50 SNU398
[48] = HEPG2 cell line, read-out: Liver cancer, EC50 HEPG2
[49] = PLC/PRF/5 cell line, read-out: Liver cancer, EC50 PLC/PRF/5

Chain of CLK3 (P49761 whole entry): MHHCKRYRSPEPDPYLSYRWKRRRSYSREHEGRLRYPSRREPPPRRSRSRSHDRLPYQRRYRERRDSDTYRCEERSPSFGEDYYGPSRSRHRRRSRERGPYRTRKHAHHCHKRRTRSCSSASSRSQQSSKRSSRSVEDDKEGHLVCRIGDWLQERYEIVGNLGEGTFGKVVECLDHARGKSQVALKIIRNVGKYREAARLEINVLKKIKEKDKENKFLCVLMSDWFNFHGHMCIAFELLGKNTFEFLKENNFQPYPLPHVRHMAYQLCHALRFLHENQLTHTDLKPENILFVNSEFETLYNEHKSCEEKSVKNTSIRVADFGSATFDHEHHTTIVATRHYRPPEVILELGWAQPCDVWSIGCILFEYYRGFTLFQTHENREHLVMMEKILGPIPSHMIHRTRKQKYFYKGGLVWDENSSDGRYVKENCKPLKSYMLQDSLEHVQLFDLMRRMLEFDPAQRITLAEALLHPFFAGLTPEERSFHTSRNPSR

EC50 (CLK3): 12 nM
EC50 (CLK2): 4 nM
EC50 [1, 8]: 0.077 µM
EC50 [1, 9]: 0.198 µM
EC50 [1, 10]: 0.067 µM
EC50 [1, 11]: 0.173 µM
EC50 [1, 12]: 0.059 µM
EC50 [1, 13]: 0.136 µM
EC50 [2, 14]: > 10 µM
EC50 [2, 15]: 0.143 µM
EC50 [2, 16]: 0.562 µM
EC50 [2, 17]: 0.171 µM
EC50 (T47D): 635 nM
EC50 (DU4475): 420 nM
EC50 (HCC1599): 94 nM
EC50 (BT-549): 210 nM
EC50 (MDA-MB-231-Luc): > 10000 nM
EC50 (CAMA1): 399 nM
EC50 (ZR-75-1): 506 nM
EC50 (MCF7): 683 nM
EC50 [3, 18]: 0.452 µM
EC50 [3, 19]: 0.64 µM
EC50 [3, 20]: 0.564 µM
EC50 [3, 21]: 0.412 µM
EC50 [4, 22]: 527 nM
EC50 [4, 23]: 224 nM
EC50 [4, 24]: 295 nM
EC50 [4, 25]: 148 nM
EC50 [4, 26]: 419 nM
EC50 [4, 27]: 488 nM
EC50 [4, 28]: 135 nM
EC50 [5, 29]: 0.207 µM
EC50 [5, 30]: 0.067 µM
EC50 [5, 31]: 0.082 µM
EC50 [5, 32]: 0.491 µM
EC50 [5, 33]: 0.252 µM
EC50 [5, 34]: 0.175 µM
EC50 [5, 35]: 0.466 µM
EC50 [5, 36]: 0.109 µM
EC50 [5, 37]: 0.209 µM
EC50 [5, 38]: 0.241 µM
EC50 [5, 39]: 0.13 µM
EC50 [5, 40]: 0.226 µM
EC50 [5, 41]: 0.122 µM
EC50 [6, 42]: 239 nM
EC50 [6, 43]: 250 nM
EC50 [6, 44]: 414 nM
EC50 [6, 45]: 509 nM
EC50 [6, 46]: 505 nM
EC50 [7, 47]: 96 nM
EC50 [7, 48]: > 10000 nM
EC50 [7, 49]: 350 nM
Compound: CC(C)Nc1cncc(-c2ccc3cnc(NC(=O)c4cn(C5CCN(CCF)CC5)nn4)cc3c2)n1 [Compound 85]
EC50 (all 50 cell lines): 880 nM

EC50 (CLK3): 11.5 nM
EC50 (CLK2): 4.7 nM
EC50 [1, 8]: 0.718 µM
EC50 [1, 9]: 1.17 µM
EC50 [1, 10]: 0.49 µM
EC50 [1, 11]: 0.848 µM
EC50 [1, 12]: 0.454 µM
EC50 [1, 13]: 1.46 µM
EC50 [2, 14]: 1.25 µM
EC50 [2, 15]: 1.23 µM
EC50 [2, 16]: 6.93 µM
EC50 [2, 17]: 1.2 µM
EC50 (T47D): > 10000 nM
EC50 (DU4475): 2500 nM
EC50 (HCC1599): > 10000 nM
EC50 (BT-549): 2890 nM
EC50 (MDA-MB-231-Luc): 3790 nM
EC50 (CAMA1): 2130 nM
EC50 (ZR-75-1): 4180 nM
EC50 (MCF7): > 10000 nM
EC50 [3, 18]: 1.5 µM
EC50 [3, 19]: 6.86 µM
EC50 [3, 20]: 2.72 µM
EC50 [3, 21]: 0.895 µM
EC50 [4, 22]: 1710 nM
EC50 [4, 23]: 1890 nM
EC50 [4, 24]: 2630 nM
EC50 [4, 25]: 1010 nM
EC50 [4, 26]: 2890 nM
EC50 [4, 27]: 5420 nM
EC50 [4, 28]: 983 nM
EC50 [5, 29]: 1.37 µM
EC50 [5, 30]: 0.292 µM
EC50 [5, 31]: 0.663 µM
EC50 [5, 32]: 1.11 µM
EC50 [5, 33]: 2.85 µM
EC50 [5, 34]: 0.645 µM
EC50 [5, 35]: 2.14 µM
EC50 [5, 36]: 0.884 µM
EC50 [5, 37]: 1.22 µM
EC50 [5, 38]: 1.07 µM
EC50 [5, 39]: 1.46 µM
EC50 [5, 40]: 2.11 µM
EC50 [5, 41]: 0.811 µM
EC50 [6, 42]: 2690 nM
EC50 [6, 43]: 3350 nM
EC50 [6, 44]: 1210 nM
EC50 [6, 45]: 5330 nM
EC50 [6, 46]: 2250 nM
EC50 [7, 47]: 459 nM
EC50 [7, 48]: 3860 nM
EC50 [7, 49]: > 10000 nM
Compound: CN1CC=C(c2cc(C(=O)Nc3cc4cc(-c5cncc(NC(C)(C)C)n5)cnc4cn3)ccn2)CC1 [Compound 86]
EC50 (all 50 cell lines): 2710 nM
